Reference: the OPERA property sets (Mansouri et al. 2018)

| Structure (SMILES) | logP |
| --- | --- |
| O=C(CN1CCOCC1)NCc1ccccc1 | 0.67 |
| O=CC1=CC=C2C(C(=O)O)CCN2c2cc(Br)ccc21 (configuration not stated) | 3.6 |
| CCCCC(CCCC)C(=O)O | 3.2 |
| CCN(CC)C(C)C(=O)Nc1c(C)cccc1C (configuration not stated) | 2.73 |
| O=C(c1ccc2n1CCC2C(=O)O)C1CCC1 (configuration not stated) | 2.41 |
| O=C1NC(=O)C(c2ccccc2)C(=O)N1 | -0.17 |
| CC(C(=O)O)c1ccc(N2Cc3ccccc3C2=O)cc1 (configuration not stated) | 2.77 |
| OCC1c2ccccc2-c2ccccc21 | 2.89 |
| Clc1ccc(-c2ccccc2)cc1Cl | 5.29 |
| O=C(O)c1cc2ccccc2cc1O | 3.05 |
| CCN1CC(C(O)C(CC2CCCCC2)NC(=O)C(Cc2cnc[nH]2)NC(=O)C(Cc2ccc(OC)cc2)NC(=O)N2CC(OCOC)C(OCOC)C2)OC1=O (configuration not stated) | 2.06 |
| CC1OC(OC2C(O)CC(OC3C(O)CC(OC4CCC5(C)C(CCC6C5CC(O)C5(C)C(C7COC(=O)C7)CCC65O)C4)OC3C)OC2C)CC(O)C1O (configuration not stated) | 1.36 |
| COC1CC2(C)C(O)CCC2C2CCc3cc(O)ccc3C12 (configuration not stated) | 2.72 |
| CCOC1OC(CO)C(O)C(O)C1O (configuration not stated) | -2.28 |
| CCOc1ccc(NC(=O)CN2CCCCC2)cc1 | 2.82 |
| COc1ccc(Cc2cnc(N)nc2N)cc1N(C)C | 1.68 |
| CCC(N)C(=O)Nc1c(C)cccc1C (configuration not stated) | 0.84 |
| CCCCNC(=O)NS(=O)(=O)c1ccc(N)cc1 | 1.01 |
| CCCCc1ccc(N2C(N)=NC(N)=NC2(C)C)cc1 | 2.66 |
| O=[N+]([O-])O[C@@H]1CO[C@H]2[C@@H]1OC[C@@H]2O | -0.15 |
| O=C1CCC(c2ccccc2)CC1 | 2.3 |
| C=C1C(=O)OC2C1C(OC(=O)C(C)=CC)CC1(CO1)C1C(OC(C)=O)C=C(C)C21O (configuration not stated) | 0.76 |
| Clc1ccc(OCc2cccc(CN3CCOCC3)c2)cc1 | 3.52 |

| Structure (SMILES) | logP |
| --- | --- |
| CC(=O)OC1CC2C(CCC3CC(OC4CC(O)C(OC5CC(O)C(OC6CC(O)C(O)C(C)O6)C(C)O5)C(C)O4)CCC32C)C2(O)CCC(C3=CC(=O)OC3)C12C (configuration not stated) | 2.29 |
| CCCCCCCC(C)(C)c1ccc(C2CCCC(O)C2)c(O)c1 (configuration not stated) | 7.18 |
| C=C1C(=O)OC2C=C(C)C3(O)C=CC(C)(CC(OC(=O)C(=CC)COC(C)=O)C12)O3 (configuration not stated) | 1.19 |
| CCN(CC)CCC(=O)Nc1c(C)cccc1C | 2.21 |
| CC(C)c1cccc(S(N)(=O)=O)c1 | 1.81 |
| NS(=O)(=O)c1nc2c(Cl)cc(Cl)cc2s1 | 2.6 |
| CCCC(=O)c1ccccc1 | 2.77 |
| CCCc1ccc(N)cc1 | 2.4 |
| O=C(O)Cc1ccc(C2CCCC2)cc1 | 3.44 |
| O=C1C(Nc2ccccc2)=C(S(=O)(=O)c2ccccc2)C(=O)c2ccccc21 | 3.38 |
| CN(C)CCCCN(Cc1ccc(C(C)(C)C)cc1)c1ccccc1 | 5.53 |
| CCCC(O)C(=O)O (configuration not stated) | 0.45 |
| COC(C)(OC)c1ccc(C(O)(Cn2ccnc2)c2ccc(-c3ccncc3)cc2)cc1 (configuration not stated) | 3.45 |
| CCCCNC(=O)n1cc(F)c(=O)[nH]c1=O | 1.44 |
| O=C(c1ccc(C(F)(F)F)cc1)c1ccc2n1CCC2C(=O)O (configuration not stated) | 3.71 |
| CC(C(N)=O)n1nnc2ccccc21 (configuration not stated) | 0.35 |
| COc1ccc(CCNCC(O)COc2ccc(-c3ncc(C)[nH]3)cc2OC)cc1OC (configuration not stated) | 1.89 |
| CC(=O)c1c(O)c(C)c(O)c2c1OC1=CC(=O)C(C(C)=O)C(=O)C12C (configuration not stated) | 2.88 |
| CCOC(=O)c1ccc(S(N)(=O)=O)cc1 | 1.17 |
| CCCOC(=O)c1ccccc1Cl | 3.45 |
| Cc1ccc(N(CCO)CCO)cc1 | 1.09 |
| CNC(=O)NS(=O)(=O)c1ccc(C)cc1 | 0.95 |
| Cc1ccc(F)cc1NC1=NCCN1 | 1.41 |

| Structure (SMILES) | logP |
| --- | --- |
| CC(C)c1cc(C(C)C)cc(C2C(=O)c3ccccc3C2=O)c1 | 5.96 |
| CCCCCCCCC(=O)O | 3.42 |
| CCCCCCC(C)(C)c1cc(O)c2c(c1)OC(C)(C)C1CCC(CO)=CC21 (configuration not stated) | 7.83 |
| CC(=O)NCc1cccc(OCC(O)CNC(C)C)c1 (configuration not stated) | 0.34 |
| CCCCC(CCC)C(=O)O (configuration not stated) | 3.01 |
| Cc1cccc(C)c1NC(=O)CCCCN | 1.02 |
| CCCCC/C=C\C/C=C\C/C=C\C/C=C\CCCC(=O)O | 6.98 |
| O=c1c2ccccc2nc2n1CCC2 | 1.07 |
| Cc1cnc([N+](=O)[O-])n1CCO | 0.18 |
| CCc1cccc2ccccc12 | 4.4 |
| C=C(C)C(=O)OCC(C)(O)COc1cccc2ccccc12 (configuration not stated) | 3.77 |
| CCCCOC(=O)COc1cc(Cl)c(Cl)cc1Cl | 4.81 |
| Cc1cccc(C)c1NC(=O)C(C)N (configuration not stated) | 0.76 |
| CCn1c(=O)[nH]c(=O)c2[nH]cnc21 | -0.11 |
| CCN(CC)C(C)CC(=O)Nc1c(C)cccc1C (configuration not stated) | 2.63 |
| CC(C)C(=O)OCC1OC(n2cc(I)c(=O)[nH]c2=O)C1O (configuration not stated) | 0.83 |
| N[C@@H](Cc1cnccn1)C(=O)O | -2.79 |
| O=C(CN1CCCCC1)Nc1ccc(Cl)c(Cl)c1 | 3.65 |
| CCCCCCCCC(C)(C)c1ccc(C2CCCC(O)C2)c(O)c1 (configuration not stated) | 8.16 |
| COC(=O)C=COc1ccccc1Cl | 3.02 |
| Cc1cc(Br)cc(C(=O)NC2CC2)c1O | 3.8 |
| CN(C)CCC(c1ccccc1)c1ccc(C(C)(C)C)cc1 (configuration not stated) | 5.1 |
| CC(C)CCOC(=O)c1ccccc1 | 4.15 |

| Structure (SMILES) | logP |
| --- | --- |
| CC(=O)O[C@H]1C[C@H](O[C@H]2[C@@H](O)C[C@H](O[C@H]3[C@@H](O)C[C@H](O[C@H]4CC[C@@]5(C)[C@H](CC[C@@H]6[C@@H]5C[C@@H](O)[C@]5(C)[C@@H](C7=CC(=O)OC7)CC[C@]65O)C4)O[C@@H]3C)O[C@@H]2C)O[C@H](C)[C@H]1O | 1.97 |
| Cc1cccc(C)c1NC(=O)CCC(C)N (configuration not stated) | 1.08 |
| FC(F)(c1ccccc1)C(F)(F)c1ccccc1 | 5 |
| CCCCCC1Nc2cc(C(F)(F)F)c(S(N)(=O)=O)cc2S(=O)(=O)N1 (configuration not stated) | 2.66 |
| CCNC(C)Cc1cccc(C(F)(F)F)c1 (configuration not stated) | 3.36 |
| CNC(=O)c1cc(Br)cc(C)c1O | 3.51 |
| COC(=O)c1nc(NCC(O)CO)cnc1[N+](=O)[O-] (configuration not stated) | -0.1 |
| CC(=O)OCC1SC(n2ccnc2[N+](=O)[O-])C(OC(C)=O)C(OC(C)=O)C1OC(C)=O (configuration not stated) | 0.63 |
| C[C@@H]1Cc2c(Cl)cc(C(=O)N[C@@H](Cc3ccccc3)C(=O)O)c(O)c2C(=O)O1 | 4.74 |
| Cc1ccc(C)c(O)c1C | 2.67 |
| Cn1nnnc1SCC1=C(C(=O)OCOC(=O)C(C)(C)C)N2C(=O)C(NC(=O)C(O)c3ccccc3)C2SC1 (configuration not stated) | 0.85 |
| CCCCn1c(=O)n(C)c(=O)c2[nH]cnc21 | 1.29 |
| C#CC1(O)C(F)CC2C3CCc4cc(O)ccc4C3C(OC)CC21C (configuration not stated) | 2.87 |
| CCC1OC(=O)C(C)C(OC2CC(C)(OC)C(OC=O)C(C)O2)C(C)C(OC2OC(C)CC(N(C)C)C2O)C(C)(O)CC(C)C(=O)C(C)C(O)C1C (configuration not stated) | 3.05 |
| CCCCOC(=O)c1cc(=O)[nH]c(=O)[nH]1 | 1.06 |
| OC(Cn1ccnc1)(c1ccc(Cl)cc1)c1ccc(-c2ccncc2)cc1 (configuration not stated) | 3.27 |
| CCN1CC(C(O)C(CC2CCCCC2)NC(=O)C(Cc2cscn2)NC(=O)C(CC(=O)N2CCOCC2)c2ccccc2)OC1=O (configuration not stated) | 2.83 |
| O=C1c2ccccc2C(=O)C1c1ccc(-c2ccccc2)cc1 | 4.79 |
| Fc1ccc(Cl)c(N=C2NCCN2)c1 | 1.52 |
| CC1CCCc2nccc(=O)n21 (configuration not stated) | 0.3 |
| C=C(C)C(=O)OCC(C)(C)COC(=O)C(=C)C | 2.79 |
| O=C(O)C=COc1ccccc1Cl | 2.69 |
| CO[C@@]1(NC(=O)CSCC#N)C(=O)N2C(C(=O)O)=C(CSc3nnnn3C)CS[C@@H]21 | -0.6 |
